Source: the supplement of paper PMC10307832

Columns and labels:
Experiment in all cases: relative viability (nuclei count vs DMSO), 5 days (fraction); higher = more cells survive
XMD8-85 + Navitoclax = compound: CN1CCN(CC1)C2=CC(=C(C=C2)NC3=NC=C4C(=N3)N(C5=CC=CC=C5C(=O)N4C)C)OC [XMD8-85] + CC1(C)CCC(c2ccc(Cl)cc2)=C(CN2CCN(c3ccc(C(=O)NS(=O)(=O)c4ccc(N[C@H](CCN5CCOCC5)CSc5ccccc5)c(S(=O)(=O)C(F)(F)F)c4)cc3)CC2)C1 [Navitoclax] (partner 0.5 µM)
Method in brief: (§1)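 The day after seeding in 1536-well plates, lung cancer cell lines were treated by pin tool with a single drug, or with a fixed anchor-drug dose together with five library-drug doses (not always all listed) in √10 steps. After 5 days, a combined fix-and-stain solution (final 0.05% Triton X-100, 1% formaldehyde, 1 ug/ml Hoechst) was added. Nuclei counted on 4× images gave relative viability as treated counts over vehicle counts, reported as the median of duplicate plates.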

XMD8-85 + Foretinib = compound: CN1CCN(CC1)C2=CC(=C(C=C2)NC3=NC=C4C(=N3)N(C5=CC=CC=C5C(=O)N4C)C)OC [XMD8-85] + COc1cc2c(Oc3ccc(NC(=O)C4(C(=O)Nc5ccc(F)cc5)CC4)cc3F)ccnc2cc1OCCCN1CCOCC1 [Foretinib] (partner 0.25 µM)
Method in brief: as §1

XMD8-85 = compound: CN1CCN(CC1)C2=CC(=C(C=C2)NC3=NC=C4C(=N3)N(C5=CC=CC=C5C(=O)N4C)C)OC [XMD8-85]
Method in brief: (§2)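 For viability, nuclei in each treated well were divided by nuclei in vehicle wells and the median across plates was taken. Lung cancer cell lines in 1536-well plates were pinned with five library-drug doses (not always all listed) spaced by √10, cultured 5 days without medium change, and imaged at 4× after Hoechst staining, with plates passing only at control CV below 25% and at least one doubling.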

4EGI-1 = compound: O=C(O)C(Cc1ccccc1[N+](=O)[O-])=NNc1nc(-c2ccc(Cl)c(Cl)c2)cs1 (mixture of isomers) [4EGI-1]
Method in brief: as §2

Cell Line	relative viability (XMD8-85 + Navitoclax; first compound 0.08 µM)	relative viability (XMD8-85 + Navitoclax; first compound 0.253 µM)	relative viability (XMD8-85 + Navitoclax; first compound 0.8 µM)	relative viability (XMD8-85 + Navitoclax; first compound 2.53 µM)	relative viability (XMD8-85 + Navitoclax; first compound 8 µM)	relative viability (XMD8-85 + Foretinib; first compound 0.253 µM)	relative viability (XMD8-85 + Foretinib; first compound 0.8 µM)	relative viability (XMD8-85 + Foretinib; first compound 2.53 µM)	relative viability (XMD8-85 + Foretinib; first compound 8 µM)	relative viability (XMD8-85; 0.08 µM)	relative viability (XMD8-85; 0.253 µM)	relative viability (XMD8-85; 0.8 µM)	relative viability (XMD8-85; 2.53 µM)	relative viability (XMD8-85; 8 µM)	relative viability (4EGI-1; 0.5 µM)	relative viability (4EGI-1; 1.581 µM)	relative viability (4EGI-1; 5 µM)	relative viability (4EGI-1; 15.81 µM)	relative viability (4EGI-1; 50 µM)	relative viability (XMD8-85 + Foretinib; first compound 0.08 µM)
NCI-H1793	0.334	0.348	0.962	1.27	0.351	0.668	0.681	0.783	0.594	0.82	0.906	0.938	1.2	0.825	1.05	0.95	1.31	0.765	0.439	–
NCI-H1703	1.02	1.18	1.23	1.13	0.983	0.363	0.33	0.374	0.35	0.934	1.06	1.06	0.967	0.822	1.34	1.08	1.12	0.928	0.571	0.353
EKVX	0.931	0.999	0.89	1.03	0.892	0.864	0.836	0.971	0.664	0.966	1.05	1.02	1.19	0.863	1.05	0.746	1.04	0.698	0.859	0.716
COR-L23	1.24	1.06	1.02	0.871	0.629	1.05	1.06	0.998	0.773	1.11	1.07	1.06	1.12	0.886	1.08	0.859	1.11	0.771	0.155	1.02
SW 1573	1.13	1.02	0.896	0.801	0.545	0.884	0.854	1	0.762	1.02	1.1	1.08	0.982	–	1.24	0.862	1.03	0.673	0.445	0.876
NCI-H1648	–	–	–	–	–	–	–	–	–	0.827	0.73	0.7	0.829	0.869	0.831	0.958	0.968	0.808	0.509	–
COR-L 105	0.83	0.819	0.738	0.563	0.337	1.14	1.08	0.672	0.387	0.913	0.861	0.836	0.853	0.411	0.91	0.879	0.986	0.644	0.648	1.21
NCI-H2023	0.924	1.08	1.13	0.997	–	0.804	0.961	0.699	0.391	0.837	1.02	0.99	1	0.559	1.27	–	1.1	0.376	0.129	0.865
